Here are results for eight compounds from ChEMBL document CHEMBL4261498, “Synthesis, characterization, and radioprotective activity of α,β-unsaturated aryl sulfone analogs and their Tempol conjugates” (Medchemcomm, 2017).

Each structure is given as a SMILES string. Calls of active or inactive are those of the source. No cut-off for these calls is given here.

For data set [1], the system named is HUVEC. In words: Cytotoxicity against HUVEC after 24 hrs by MTT assay. Format: cell-based. As to conditions: human. (Formazan colour is commonly taken as a measure of viable cells.)
Data set [2] has as its system HUVEC. In words: Radioprotective activity against 5 Gy gamma radiation-mediated cell damage in HUVEC assessed as increase in cell survival at 0.1 to 10 uM preincubated for 2 hrs followed by 5 Gy gamma irradiation and measured after 48 hrs by MTT assay. The format is functional, cell-based. As to conditions: Homo sapiens.
The subject of data set [3] is HUVEC. In words: Radioprotective activity against 5 Gy gamma radiation-mediated cell damage in HUVEC assessed as early apoptotic cells at 0.1 uM preincubated for 2 hrs followed by 5 Gy gamma irradiation and measured after 24 hrs by annexin-V-FITC/propidium iodide staining-based flow cytometric method (reference value: 21.2%). The format is functional, Homo sapiens. (In general: A flow cytometer gives signals particle by particle.)

The test system of data set [4] is HUVEC. Kind of data set: Radioprotective activity against 5 Gy gamma radiation-mediated cell damage in HUVEC assessed as late apoptotic cells at 0.1 uM preincubated for 2 hrs followed by 5 Gy gamma irradiation and measured after 24 hrs by annexin-V-FITC/propidium iodide staining-based flow cytometric method (reference value: 9.5%). The format is functional, Homo sapiens.

Data set [5] relates to HUVEC. In words: Radioprotective activity against 5 Gy gamma radiation-mediated cell damage in HUVEC assessed as necrotic cells at 0.1 uM preincubated for 2 hrs followed by 5 Gy gamma irradiation and measured after 24 hrs by annexin-V-FITC/propidium iodide staining-based flow cytometric method (reference value: 3.5%). Format: functional, Homo sapiens.
For data set [6], the system named is HUVEC. In words: Radioprotective activity against 5 Gy gamma radiation-mediated cell damage in HUVEC assessed as viable cells at 0.1 uM preincubated for 2 hrs followed by 5 Gy gamma irradiation and measured after 24 hrs by annexin-V-FITC/propidium iodide staining-based flow cytometric method (reference value: 65.8%). The format is functional. As to conditions: Homo sapiens, light or radiation study, read-out: Activity.

Data set [7] relates to HUVEC. Kind of data set: Radioprotective activity against 5 Gy gamma radiation-mediated cell damage in HUVEC assessed as early apoptotic cells at 1 uM preincubated for 2 hrs followed by 5 Gy gamma irradiation and measured after 24 hrs by annexin-V-FITC/propidium iodide staining-based flow cytometric method (reference value: 21.2%). The format is functional, Homo sapiens.
In data set [8] the test system is HUVEC. Kind of data set: Radioprotective activity against 5 Gy gamma radiation-mediated cell damage in HUVEC assessed as late apoptotic cells at 1 uM preincubated for 2 hrs followed by 5 Gy gamma irradiation and measured after 24 hrs by annexin-V-FITC/propidium iodide staining-based flow cytometric method (reference value: 9.5%). The format is functional, Homo sapiens.

Data set [9] deals with HUVEC. In words: Radioprotective activity against 5 Gy gamma radiation-mediated cell damage in HUVEC assessed as necrotic cells at 1 uM preincubated for 2 hrs followed by 5 Gy gamma irradiation and measured after 24 hrs by annexin-V-FITC/propidium iodide staining-based flow cytometric method (reference value: 3.5%). The format is functional, Homo sapiens.
In data set [10] the test system is HUVEC. Kind of data set: Radioprotective activity against 5 Gy gamma radiation-mediated cell damage in HUVEC assessed as viable cells at 1 uM preincubated for 2 hrs followed by 5 Gy gamma irradiation and measured after 24 hrs by annexin-V-FITC/propidium iodide staining-based flow cytometric method (reference value: 65.8%). The format is functional. Particulars: Homo sapiens, light or radiation study, read-out: Activity.

For data set [11], the system named is HUVEC. Kind of data set: Radioprotective activity against 5 Gy gamma radiation-mediated cell damage in HUVEC assessed as early apoptotic cells at 10 uM preincubated for 2 hrs followed by 5 Gy gamma irradiation and measured after 24 hrs by annexin-V-FITC/propidium iodide staining-based flow cytometric method (reference value: 21.2%). Format: functional, Homo sapiens.

Data set [12] deals with HUVEC. Kind of data set: Radioprotective activity against 5 Gy gamma radiation-mediated cell damage in HUVEC assessed as late apoptotic cells at 10 uM preincubated for 2 hrs followed by 5 Gy gamma irradiation and measured after 24 hrs by annexin-V-FITC/propidium iodide staining-based flow cytometric method (reference value: 9.5%). Format: functional, Homo sapiens.
The subject of data set [13] is HUVEC. In words: Radioprotective activity against 5 Gy gamma radiation-mediated cell damage in HUVEC assessed as necrotic cells at 10 uM preincubated for 2 hrs followed by 5 Gy gamma irradiation and measured after 24 hrs by annexin-V-FITC/propidium iodide staining-based flow cytometric method (reference value: 3.5%). The format is functional, Homo sapiens.
Data set [14] has as its system HUVEC. Kind of data set: Radioprotective activity against 5 Gy gamma radiation-mediated cell damage in HUVEC assessed as viable cells at 10 uM preincubated for 2 hrs followed by 5 Gy gamma irradiation and measured after 24 hrs by annexin-V-FITC/propidium iodide staining-based flow cytometric method (reference value: 65.8%). The format is functional. Particulars: Homo sapiens, light or radiation study, read-out: Activity.

The subject of data set [15] is HUVEC. Kind of data set: Radioprotective activity against 5 Gy gamma radiation-mediated cell damage in HUVEC assessed as reduction of total p53 levels at 0.1 to 10 uM by Western blot method. Format: functional, cell-based. Particulars: Homo sapiens. In general terms: In western blotting, separated proteins are transferred to a membrane and probed.
Data set [16] deals with HUVEC. Kind of data set: Radioprotective activity against 5 Gy gamma radiation-mediated cell damage in HUVEC assessed as reduction of phopsho-p53 levels at 0.1 to 10 uM by Western blot method. The format is functional, cell-based. As to conditions: Homo sapiens.
The subject of data set [17] is HUVEC. In words: Radioprotective activity against 5 Gy gamma radiation-mediated cell damage in HUVEC assessed as decrease in caspase-3 activation at 0.1 to 10 uM by Western blot method. Format: functional, cell-based. As to conditions: Homo sapiens.
Data set [18] deals with HUVEC. Kind of data set: Radioprotective activity against 5 Gy gamma radiation-mediated cell damage in HUVEC assessed as increase in Bcl-2 levels at 0.1 to 10 uM by Western blot method. As to conditions: Homo sapiens. Format: functional, cell-based.
Data set [19] has as its system HUVEC. In words: Radioprotective activity against 5 Gy gamma radiation-mediated cell damage in HUVEC assessed as decrease in Bax levels at 0.1 to 10 uM by Western blot method. Format: functional, cell-based. Particulars: Homo sapiens.

Consider `COc1ccc(/C=C/S(=O)(=O)Cc2ccc(Cl)cc2)cc1`, for which the Activity result in data set [1] is listed as “Toxic”.
Same read-out and setting: the value for `O=S(=O)(/C=C/c1ccc(-c2ccccc2)cc1)Cc1ccc(Cl)cc1` was “Toxic”.
Regarding `O=C(O)c1ccc(/C=C/S(=O)(=O)Cc2ccc(F)cc2)cc1`, the Activity result in data set [1] is on record as “Toxic”; in [3], 7.3%; in data set [4], 0.8%; in [5] it was 1.5%; in data set [7], 10.5%; in [8], 2.3%. Further, the Activity in [9] is recorded as 1.6%; in data set [11], 4.7%; in data set [12], 1%; in data set [13], 1%. The result in data set [2] was inactive. Moreover, the viability at 0.1 µM in data set [6] was 90.4%. Further, the viability at 1 µM in [10] was found to be 85.6%. Further, in [14], the viability at 10 µM turned out to be 93.4%. The outcome in [15], in data set [16], in [17], in data set [18] and in data set [19] was Active.
Take `O=C(O)c1ccc(/C=C/S(=O)(=O)Cc2ccc(C(F)(F)F)cc2)cc1`: the Activity result in data set [1] is “Toxic”.
As for `CC(C)(C)c1ccc(CS(=O)(=O)/C=C/c2ccc(C(=O)O)cc2)cc1`, in data set [1], the Activity entry was “Toxic”.
Turning to `Cc1ccc(/C=C/S(=O)(=O)Cc2ccc(Cl)cc2)cc1`, the Activity result in data set [1] is “Toxic”.
Still for that read-out and setting: the value for `O=S(=O)(/C=C/c1ccccc1)Cc1ccc(Cl)cc1` was “Toxic”.
`O=C(O)c1ccc(/C=C/S(=O)(=O)Cc2ccccc2)cc1`: the Activity result in [1] is “Toxic”.
